pA2 data for five compounds are collected here from ChEMBL document CHEMBL1128468, “Amino acid side chain descriptors for quantitative structure-activity relationship studies of peptide analogues” (J Med Chem, 1995).

This assay deals with T1, Oxytocin receptor (Rattus norvegicus, UniProt P70536).
T1 sequence (P70536 whole entry): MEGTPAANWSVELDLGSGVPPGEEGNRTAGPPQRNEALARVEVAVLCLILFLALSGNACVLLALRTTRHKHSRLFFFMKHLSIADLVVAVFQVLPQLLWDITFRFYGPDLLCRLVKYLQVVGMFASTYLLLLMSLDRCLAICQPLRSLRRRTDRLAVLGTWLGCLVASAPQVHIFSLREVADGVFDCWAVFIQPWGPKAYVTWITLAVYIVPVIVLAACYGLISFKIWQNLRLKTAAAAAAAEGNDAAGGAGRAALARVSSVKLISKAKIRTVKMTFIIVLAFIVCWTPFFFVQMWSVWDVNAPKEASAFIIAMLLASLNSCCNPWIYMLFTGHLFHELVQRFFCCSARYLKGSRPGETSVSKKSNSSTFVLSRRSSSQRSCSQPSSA
Nature of the assay: Biological activity against Oxytocin receptor in rat.
As a reminder, the pA2 is a measure of antagonist potency on a negative log scale. High values mean a more potent antagonist, low ones a weaker antagonist. With `CC[C@H](C)[C@@H]1NC(=O)[C@@H](Cc2c[nH]c3ccccc23)NC(=O)CC2(CCCCC2)SSC(C)(C)[C@H](C(=O)N2CCC[C@H]2C(=O)N[C@@H](CCCN=C(N)N)C(=O)NCC(N)=O)NC(=O)[C@H](CC(N)=O)NC(=O)[C@H](CCC(=O)O)NC1=O`, the pA2 was 7.98.
Compound `CC[C@H](C)[C@H](NC(=O)[C@@H](Cc1c[nH]c2ccccc12)NC(=O)CC1(S)CCCCC1)C(=O)N[C@H](CCCNC(N)=O)C(=O)N[C@@H](CC(N)=O)C(=O)N[C@@H](CS)C(=O)N1CCC[C@H]1C(=O)N[C@@H](CCCN=C(N)N)C(=O)NCC(N)=O` registered a pA2 of 5.51.
As to `CC[C@H](C)[C@H](NC(=O)[C@@H](Cc1c[nH]c2ccccc12)NC(=O)CC1(S)CCCCC1)C(=O)N[C@H](CCC(N)=O)C(=O)N[C@@H](CC(N)=O)C(=O)N[C@@H](CS)C(=O)N1CCC[C@H]1C(=O)N[C@@H](CCCN=C(N)N)C(=O)NCC(N)=O`, the pA2 is 5.24.
The compound `CC[C@H](C)[C@H](NC(=O)[C@@H](Cc1c[nH]c2ccccc12)NC(=O)CC1(S)CCCCC1)C(=O)N[C@H](CC(N)=O)C(=O)N[C@@H](CC(N)=O)C(=O)N[C@@H](CS)C(=O)N1CCC[C@H]1C(=O)N[C@@H](CCCN=C(N)N)C(=O)NCC(N)=O` gave a pA2 of 5.41.
With `CC[C@H](C)[C@@H]1NC(=O)[C@@H](Cc2c[nH]c3ccccc23)NC(=O)CC2(CCCCC2)SSC[C@@H](C(=O)N2CCC[C@H]2C(=O)N[C@@H](CCCN=C(N)N)C(=O)NCC(N)=O)NC(=O)[C@H](CC(N)=O)NC(=O)[C@@H]([C@H](C)O)NC1=O` the figure was 4.95.
